Test results taken from article PMC9305425 (Chemmedchem, 2022).
Where “and” joins values, the source holds several entries; their conditions need not be identical. Equal entries are not always repeated. Where two headings read alike, the source gives them in different places.

Tests used:
[1] = 2D [1H,1H]-NOESY; for solubility / aggregation in aqueous buffer: 298 K
Experimental: Solubility test of benzimidazole 2 in aqueous buffer. 2D [1H,1H]-NOESY of
benzimidazole 2 at 4 mM in D2O NMR buffer (50 mM NaPi, 25 mM NaCl, pH 6.5; 2% D6-

oxidized EcDsbA [2] = molecular target: T1, oxidized EcDsbA (Escherichia coli, UniProt P0AEG4); assay: biochemical; format: binding; set-up: made in house; host or cells: E. coli BL21(DE3)
[3] = molecular target: T2, unlabelled oxidized VcDsbA (Vibrio cholerae serotype O1, UniProt P32557); assay: Ligand-detected 1D 19F NMR affinity estimation; format: binding; conditions: change in 19F chemical shift at two protein:ligand ratios, VcDsbA 10 μM
T2 construct: made in house; host or cells: E. coli BL21(DE3)
Description: Residues with a CSP >0.05 ppm at the highest ligand concentration tested were mapped onto the VcDsbA structure (Figure 2C, D). The residues showing the largest CSP were localized within the hydrophobic groove, adjacent to the active site (Figure 2D). […] The K D for the VcDsbA‐benzimidazole 2 interaction was also estimated using ligand‐detected 1D ^19F‐NMR (Figure 2F). The ^19F chemical shift of the CF3 group in benzimidazole 2 has a chemical shift of −60.38 ppm in the absence of protein and was perturbed upon in a concentration‐dependent fashion upon addition of VcDsbA. The change in the chemical shift of the ^19F signal at two different protein : ligand ratios was used to estimate the K D of the interaction.[20]
Affinity estimation from ligand‐detected ^19F NMR. The change in the resonance frequency of the single ^19F signal in the 1D ^19F NMR spectrum of benzimidazole 2 was used to estimate the binding affinity using equation 2.[43] (2) KD=γL1-L2/1-γ
where γ is described as ΔδF1/ΔδF2 and ΔδF1 and ΔδF2 denote the changes in chemical shift of the fluorine signal of benzimidazole 2 in the absence of VcDsbA and in presence of VcDsbA (10.0 μM) at ligand concentrations of [L]1 and [L]2, respectively.

oxidized VcDsbA = molecular target: T3, oxidized VcDsbA (Vibrio cholerae serotype O1, UniProt P32557); assay: biochemical; format: binding; conditions: for Kd: 1H-15N HSQC titration, one-site binding model, 100 μM 15N-labeled oxidized VcDsbA, 298 K, read-out: equilibrium dissociation constant (KD); for extent of chemical shift perturbations (CSP) in 1H-15N HSQC of VcDsbA: single-point addition of compound (1 mM) to VcDsbA (100 μM), compared with other hits / analogues
T3 construct: made in house; host or cells: E. coli BL21(DE3)

VcDsbA [4] = conditions: cited from earlier work
oxidized EcDsbA [5] = molecular target: T1, oxidized EcDsbA; assay: biochemical
Experimental: ITC was performed using a MicroCal iTC200 instrument (GE Healthcare). […] Titrations were conducted at 25 °C using 15 consecutive injections of 2.5 μL with 180 s intervals and a stirring speed of 700 rpm. […] Every interaction was tested in triplicate and the values given represent mean and standard error of mean (SEM) from these triplicate analyses.
Isothermal Titration Calorimetry (ITC).
EcDsbA (A)/VcDsbA (B). Each experiment was conducted in triplicate; a single replicate
representative of the acquired ITC data is shown.
(1 picture or pasted object on this page, not shown here)

EcDsbA = conditions: cited from earlier work
VcDsbA [6] = conditions: cited from earlier work; remark: listed apart in the source

T3 sequence (P32557 20-200): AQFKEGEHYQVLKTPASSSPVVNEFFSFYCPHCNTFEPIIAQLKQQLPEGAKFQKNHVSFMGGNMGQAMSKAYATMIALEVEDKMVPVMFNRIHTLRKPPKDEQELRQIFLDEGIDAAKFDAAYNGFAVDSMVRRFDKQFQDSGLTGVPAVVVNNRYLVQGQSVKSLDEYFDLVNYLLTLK
T1 sequence (P0AEG4 20-208): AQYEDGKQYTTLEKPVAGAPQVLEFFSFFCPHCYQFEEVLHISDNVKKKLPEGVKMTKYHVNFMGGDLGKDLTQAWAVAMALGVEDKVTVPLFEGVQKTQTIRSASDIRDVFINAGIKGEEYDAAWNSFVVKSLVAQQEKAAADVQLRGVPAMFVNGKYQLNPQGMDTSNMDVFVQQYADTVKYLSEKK
T2 sequence (P32557 20-200): as the sequence (P32557 20-200) above

Structure (SMILES): OCCCc1nc2c(Cl)cc(C(F)(F)F)cc2[nH]1 [benzimidazole 2]
- solubility / aggregation in aqueous buffer ([1]; 4 mM in D2O NMR buffer (50 mM NaPi, 25 mM NaCl, pH 6.5; 2% D6-DMSO; 98% D2O)): no aggregation
- solubility / aggregation in aqueous NMR buffer ([1]; mixing time 800 ms, concentration of 2.5 mM): soluble and free from aggregation
- Kd (oxidized EcDsbA [2]): > 3500 µM
- Kd [3]: 480 µM
- Kd (oxidized VcDsbA): 446 ± 10 µM
- selectivity for VcDsbA over EcDsbA (oxidized VcDsbA; ratio of HSQC-derived KD values, VcDsbA over EcDsbA): ~8 fold
- extent of chemical shift perturbations (CSP) in 1H-15N HSQC of VcDsbA (oxidized VcDsbA): largest CSP

Structure (SMILES): OCCCc1nc2ccc(C(F)(F)F)cc2[nH]1 [benzimidazole 1]
- Kd (oxidized VcDsbA): 610 ± 150 µM
- extent of chemical shift perturbations (CSP) in 1H-15N HSQC of VcDsbA (oxidized VcDsbA): largest chemical shift perturbations

Structure (SMILES): C[C@H](CCC(=O)NCCS(=O)(=O)O)[C@H]1CC[C@H]2[C@@H]3[C@H](O)C[C@@H]4C[C@H](O)CC[C@]4(C)[C@H]3C[C@H](O)[C@]12C [TC, sodium taurocholate]
- solubility / aggregation in aqueous buffer ([1]; [TC]set = 4 mM in D2O NMR buffer): no aggregation
- Kd (VcDsbA [4]): 40 ± 2.5 µM
- N (stoichiometry) (oxidized EcDsbA [5]): 1
- ΔH (oxidized EcDsbA [5]): -6.551 ± 0.273 kcal/mol
- ΔS (oxidized EcDsbA [5]): -6.11 cal/mol/deg
- Kd (oxidized EcDsbA [5]; KD): 428 ± 44 µM
- Kd (oxidized EcDsbA [5]; association constant K): 340 µM
- effect on the oxidation state of DsbA (oxidized EcDsbA [2]): no effect on the oxidation state
- Kd (oxidized EcDsbA [2]; KD): 224 µM and ~224 µM
- Kd (EcDsbA): 146 ± 7 µM
- VcDsbA substrate oxidation in vivo (VcDsbA [6]): inhibit VcDsbA substrate oxidation in vivo
- redox state of VcDsbA (VcDsbA [6]): able to affect the redox state of VcDsbA
